Assay results published in patent US20260376311A1, “Subject selection for 11B-HSD1 inhibitor treatment” (ACTINOGEN MEDICAL LIMITED, priority 2022, published 2026).

Columns and labels:
[1] = Safety of drug intake when fasted; type: in vivo, human; conditions: oral, in words
[2] = Mini-Mental Status Examination (MMSE), Phase II placebo-controlled study, Biomarker Extension Study; type: in vivo, human
Protocol: (§1) A Phase II, Double-Blind, 12-Week, Randomised, Placebo-Controlled Study was conducted to Assess the Safety, Tolerability and Efficacy of Xanamem™ in Subjects with Mild Dementia due to Alzheimer's Disease (AD).
(§2) Study Design: This is a Phase II, randomized, multi-centre, double-blind, placebo-controlled, proof-of-concept study to assess the safety, tolerability and efficacy of oral Xanamem™ QD in adult subjects with mild dementia due to AD.
(§3) At the Baseline visit (Week 0), eligible subjects will be randomised on a 1:1 ratio to receive either 10 mg Xanamem™ administered orally, QD (treatment group) or matching placebo (placebo group). Subjects returned to the study site for the Interim visits (Week 4 and Week 8), EOT (Week 12) and Follow-up (4 weeks post last dose of study drug) visits, at which study assessments were performed.
(§4) Xanamem™ is formulated in green and cream-coloured size 3, Coni-Snap shaped gelatin capsules as an excipient blend at a dose of 10 mg (see Table 1). The dose of Xanamen™ will be 10 mg administered orally, QD.
The MMSE is a 30-point questionnaire that is used extensively in clinical and research settings to measure cognitive impairment and is commonly used in medicine and allied health to screen for dementia. It is also used to estimate the severity and progression of cognitive impairment and to follow the course of cognitive changes in an individual over time; thus making it an effective way to document a participant's response to treatment. For this study, MMSE results are relevant for subject eligibility and performed at Screening visit.
(§5) A Non-interventional Biomarker Analysis Extension Protocol study was conducted for Participants who were previously enrolled in the above described Phase II, Double-Blind, 12-Week, Randomised, Placebo-Controlled Study to Assess the Safety, Tolerability and Efficacy of Xanamem™ in Subjects with Mild Dementia due to Alzheimer's Disease (AD). The objectives for study were: • 1. To analyze the levels of biomarkers of Alzheimer's Disease (AD) proteins, neurodegeneration, and neuro-inflammation in stored plasma samples from participants with mild dementia due to AD enrolled in the previous clinical trial (at baseline and Week 12 and their change from baseline for each treatment) • 2. To examine the change from baseline in biomarkers by treatment group to Week 12 by baseline pTau181 quartile categorization/level • 3. To explore the efficacy of Xanamem in relationship to quartiles categorization/level of pTau181 levels at baseline • 4. To correlate the changes from baseline in biomarkers by treatment with changes in cognitive endpoints
(§6) From above described clinical study, the extant blood samples of 72 patients were subjected to further disease biomarker analysis. A biomarker laboratory (blinded to treatment assignment), analyzed those blood samples to determine the biomarker variable pTau181.
An analysis of overall efficacy was undertaken of the population (n=72).
(§7) For the cognitive efficacy variables (CDR-SB and MMSE), change from baseline to Week 12 was analyzed by ANCOVA with the following models: • treatment as fixed effect and baseline cognitive efficacy value as covariate; • treatment, baseline p-Tau181 (low/high) category, and treatment-by-baseline p-Tau181 (low/high) category as fixed effects, and baseline cognitive efficacy value as covariate; • treatment, baseline p-Tau181 (≤10.2 pg/mL/>10.2 pg/mL) category, and treatment-by-baseline p-Tau181 (≤10.2 pg/mL/>10.2 pg/mL) category as fixed effects, and baseline cognitive efficacy value as covariate; and • treatment, baseline MMSE (less severe (≥24)/more severe (≤23)) category, and treatment-by-baseline MMSE (less severe (≥24)/more severe (≤23)) category as fixed effects, and baseline cognitive efficacy value as covariate.

[3] = Pharmacokinetics of Xanamem (Phase I peak concentrations; fed/fasted bioavailability); type: in vivo, human; conditions: oral; with meals vs fasted; in words
pTau181 = assay: Biomarker analysis of plasma pTau181, Biomarker Extension Study; type: in vivo, human; conditions: 10 mg QD
Protocol: as §5, §6
as §7, with “biomarker p-Tau181,” for “cognitive efficacy variables (CDR-SB and MMSE),”, “were” for “was”, “biomarker” for “cognitive efficacy”

[4] = Clinical Dementia Rating Scale-Sum of Boxes (CDR-SB), Phase II placebo-controlled study, Biomarker Extension Study; type: in vivo, human; conditions: 12 weeks
Protocol: as §1, §2, §3, §4
The Washington University CDR is a global assessment instrument that yields global and SOB scores, with the global score regularly used in clinical and research settings to stage dementia severity. The CDR-SOB score has been considered a more detailed quantitative general index than the global score and provides more information than the global CDR score in participants with mild dementia. CDR Global results are relevant for subject eligibility and thus will also be performed at the Screening visit.
The CDR is obtained through semi-structured interviews of patients and informants, and cognitive functioning is rated in six domains of functioning: memory, orientation, judgement and problem solving, community affairs, home and hobbies, and personal care. Each domain is rated on a five-point scale of functioning as follows: 0, no impairment; 0.5, questionable impairment; 1, mild impairment; 2, moderate impairment; and 3, severe impairment.
The global CDR score is computed via an algorithm. CDR Global score is calculated using the Washington University online algorithm. The CDR-SOB is based on summing each of the domain box scores, with scores ranging from 0-18.
as §5
From above described clinical study, the extant blood samples of 72 patients were subjected to further disease biomarker analysis. A biomarker laboratory (blinded to treatment assignment), analyzed those blood samples to determine the biomarker variable pTau181. […]

[5] = comparison with Xanamem treatment effect; cited from earlier work
[6] = 10 mg QD oral, 12 weeks, baseline MMSE 20-23, N = 46
[7] = 10 mg QD oral, 12 weeks, baseline MMSE 24-26, N = 26
[8] = baseline to Week 12, sample size 28 and 26
[9] = 10 mg QD oral, pTau >6.74 pg/mL subgroup, N = 34
[10] = 10 mg QD oral, pTau > 10.2 pg/mL, N = 9
[11] = 10 mg QD oral, pTau ≤ 10.2 pg/mL, N = 59
[12] = Xanamem vs placebo, pTau>6.74 pg/mL subgroup, 10 mg QD

## O=C(c1csc(-c2cn[nH]c2)c1)N1[C@@H]2CC[C@H]1C[C@](O)(c1ncccn1)C2 [Xanamem, (5-(1H-Pyrazol-4-yl)thiophen-3-yl)(3-hydroxy-3-(pyrimidin-2-yl)-8-azabicyclo[3.2.1]octan-8-yl)methanone]
[1]
  safety of drug intake when fasted: no safety concern
[2]; [6]
  Cohen's d for MMSE (mean), Xanamem vs placebo: 0.93
  p value for MMSE (mean), Xanamem vs placebo: 0.02
[2]; 10 mg QD oral, 12 weeks, baseline MMSE 20-23, N = 46, desired change up, placebo −0.3
  MMSE change, MMSE 20-23 (mean): 1.7
[2]; 10 mg QD oral, 12 weeks, baseline MMSE 20-23, N = 46, desired change up, placebo −1.0
  MMSE change, MMSE 20-23 (median): 2.0
[2]; [7]
  Cohen's d for MMSE (mean), Xanamem vs placebo: −0.17
  p value for MMSE (mean), Xanamem vs placebo: 0.88
[2]; 10 mg QD oral, 12 weeks, baseline MMSE 24-26, N = 26, desired change up, placebo −1.0
  MMSE change, MMSE 24-26 (median): −1.0
[2]; 10 mg QD oral, 12 weeks, baseline MMSE 24-26, N = 26, desired change up, placebo −1.4
  MMSE change, MMSE 24-26 (mean): −1.5
[2]; overall population n=72, 10 mg QD
  Cohen's d for MMSE, Xanamem over placebo: 0.35
[2]; overall population n=72, Xanamem n=37, 10 mg QD, placebo (n=35) decrease of 0.6
  increase in the mean MMSE score: 0.3
[3]
  bioavailability in fed state: higher bioavailability observed when taken in a fed state
pTau181; sample size 28 (Xanamem) and 26 (placebo), placebo −8.59
  change in biomarker pTau181 from baseline to Week 12: −2.37
pTau181; baseline to Week 12, in words
  treatment trend in change of pTau181: no treatment trend was observed
pTau181; [8]
  Cohen's d for change in pTau181, Xanamem vs placebo: 0.08
  p for change in pTau181, Xanamem vs placebo: 0.40
[4]; 10 mg QD oral, N = 9, desired change down, placebo 0.5
  CDR-SB change, pTau pg/mL > 10.2 (median): −0.3
[4]; 10 mg QD oral, N = 9, desired change down, placebo 0.8
  CDR-SB change, pTau pg/mL > 10.2 (mean): 0.1
[4]; 10 mg QD oral, N = 34, desired change down, placebo 0.0
  CDR-SB change, pTau units ≤ 6.74 (median): 0.0
[4]; 10 mg QD oral, N = 34, desired change down, placebo 0.8
  CDR-SB change, pTau > 6.74 pg/mL (median): 0.0
[4]; 10 mg QD oral, N = 34, desired change down, placebo 1.0
  CDR-SB change, pTau > 6.74 pg/mL (mean): 0.4
[4]; 10 mg QD oral, N = 34, desired change down, placebo −0.1
  CDR-SB change, pTau units ≤ 6.74 (mean): 0.5
[4]; 10 mg QD oral, N = 59, desired change down, placebo 0.0
  CDR-SB change, pTau ≤ 10.2 pg/mL (median): 0.0
[4]; 10 mg QD oral, N = 59, desired change down, placebo 0.4
  CDR-SB change, pTau ≤ 10.2 pg/mL (mean): 0.5
[4]; [9]
  Cohen's d for CDR-SB (mean), Xanamem vs placebo: 0.41
  p value for CDR-SB (mean), Xanamem vs placebo: 0.09
[4]; 10 mg QD oral, pTau >6.74 pg/mL subgroup, Xanamem n = 16, desired change down, placebo 0.8
  CDR-SB units (median), change: 0.0 CDR-SB units
[4]; 10 mg QD oral, pTau >6.74 pg/mL subgroup, Xanamem n = 16, desired change down, placebo 1.0
  CDR-SB units (mean), change: 0.4 CDR-SB units
[4]; [10]
  Cohen's d for CDR-SB (mean), Xanamem vs placebo: 0.62
  p value for CDR-SB (mean), Xanamem vs placebo: 0.33
[4]; 10 mg QD oral, pTau units ≤ 6.74, N = 34
  Cohen's d for CDR-SB (mean), Xanamem vs placebo: 0.40
[4]; 10 mg QD oral, pTau ≤ 6.74 pg/mL, N = 34
  p value for CDR-SB (mean), Xanamem vs placebo: 0.08
[4]; [11]
  Cohen's d for CDR-SB (mean), Xanamem vs placebo: −0.06
  p value for CDR-SB (mean), Xanamem vs placebo: 0.78
[4]; [12]
  treatment effect on CDR-SB, mean: 0.6 points
  treatment effect on CDR-SB, median: 0.8 points

## CC12CC3CC(C)(C1)CC(N)(C3)C2 [memantine]
[5]
  Cohen's d of approved oral anticholinesterases or memantine: 0.2-0.3
